According to paper PMC7377239, “Cardiovascular Effects of Polychlorinated Biphenyls and Their Major Metabolites” (Environmental Health Perspectives, 2020):
Where a name gives a salt, the structure may show the parent alone.

Tested on: iPSC-CMs, iPSC-ECs and HUVECs phenotypes
Assay: ToxPi 2.0 integration of POD values and physicochemical descriptors
Set-up: species or system human
Details: ToxPi-scaled (0-1) score; for huvec.cyto.24hr / huvec.mito.24hr / huvec.mitoint.24hr / huvec.nma.24hr / huvec.tc.24hr / huvec.mtl.18hr / huvec.tlps.18hr / huvec.tta.18hr / huvec.ttl.18hr: HUVECs; for huvec.mtl.18hr / huvec.tlps.18hr / huvec.tta.18hr / huvec.ttl.18hr / endo.mtl.18hr / endo.tlps.18hr / endo.tta.18hr / endo.ttl.18hr: tube formation; for cm.amp.avg.90min / cm.amp.cv.90min / cm.bpm.90min / cm.cam.90min / cm.decay.rise.90min / cm.mii.90min / cm.mito.90min / cm.spacing.cv.90min / cm.tc.90min / cm.amp.avg.24hrs / cm.amp.cv.24hrs / cm.bpm.24hrs / cm.cam.24hrs / cm.decay.rise.24hrs / cm.mii.24hrs / cm.mito.24hrs / cm.spacing.cv.24hrs / cm.tc.24hrs: iPSC cardiomyocytes; for endo.cyto.24hr / endo.mito.24hr / endo.mitoint.24hr / endo.nma.24hr / endo.tc.24hr / endo.mtl.18hr / endo.tlps.18hr / endo.tta.18hr / endo.ttl.18hr: iPSC endothelial cells
Text: Phenotypic responses were quantitatively assessed using concentration–response modeling as detailed elsewhere ([Sirenko et al. 2017]). Briefly, phenotypic readouts were normalized to vehicle controls and fit to a four-parameter logistic model in R studio software (version 3.1.1; R Development Core Team). Following EPA guidance on dose–response modeling, a cutoff of one standard deviation across means of vehicle control (i.e., 0.5% vol/vol DMSO in cell culture media) wells was applied to determine the point-of-departure (POD) values ([U.S. EPA 2012]). In the absence of a concentration–response, the highest tested concentration (i.e., 100μM ) was assigned as “no observable adverse effect level.” The concentration–response assessment R script, as well as templates for vehicle and concentration–response data, are available as a supplement to Sirenko et al. ([2017]). The ability of physicochemical properties to predict differences in PODs were evaluated by multiregression and mixed-effects modeling using R.
POD values were then integrated using ToxPi 2.0 ([Marvel et al. 2018]) software. In ToxPi, each slice is representative of cell type– and time-point–specific phenotypes. The area of each slice is proportional to the relative value (e.g., bioactivity or physicochemical descriptor value) of the chemical within the data set. ToxPi scores were used to rank PCBs and their metabolites according to their overall bioactivity and to determine variability in total observable biological responses and chemical characteristics for each major metabolite class and chlorination status (mono-, hexa-chlorinated). Additional visualizations such as dumbbell and principal components analysis plots were generated in R Studio (version 1.1.456; R version 3.5.1; R Development Core Team) using the ggplot2 package.

For O=S(=O)(O)Oc1cc(Cl)c(-c2cc(Cl)ccc2Cl)cc1Cl [4-PCB 52 sulfate], the huvec.cyto.24hr was 0.3025, the huvec.mito.24hr was 0.4046 and the huvec.mitoint.24hr was 0.09717. The huvec.nma.24hr was 0.1382, the huvec.tc.24hr was 0.3025 and the huvec.mtl.18hr was 0.4309. For the same compound, the huvec.tlps.18hr was 0.4338, the huvec.tta.18hr was 0 and the huvec.ttl.18hr was 0. It also gave a cm.amp.avg.90min of 0.5595, a cm.amp.cv.90min of 0.2844 and a cm.bpm.90min of 0.3731. The cm.cam.90min was 0.9201, the cm.decay.rise.90min was 0.4741 and the cm.mii.90min was 0.3306. For the same compound, the cm.mito.90min was 0.9162, the cm.spacing.cv.90min was 0.09545 and the cm.tc.90min was 0.9127. The cm.amp.avg.24hrs was 0, the cm.amp.cv.24hrs was 0.4327 and the cm.bpm.24hrs was 0.3667. The cm.cam.24hrs was 0.3358, the cm.decay.rise.24hrs was 0.4673 and the cm.mii.24hrs was 0.2133. The cm.mito.24hrs was 0.5368, the cm.spacing.cv.24hrs was 0.207 and the cm.tc.24hrs was 0.5686. For the same compound, the endo.cyto.24hr was 0.1547, the endo.mito.24hr was 0.1547 and the endo.mitoint.24hr was 0. For the same compound, the endo.nma.24hr was 0, the endo.tc.24hr was 0.1212 and the endo.mtl.18hr was 0.2716. The endo.tlps.18hr was 0.4577, the endo.tta.18hr was 0.2209 and the endo.ttl.18hr was 0.2158.

For O=S(=O)(O)Oc1cccc(-c2ccc(Cl)cc2)c1 [3'-PCB 3 sulfate], the huvec.cyto.24hr was 0, the huvec.mito.24hr was 0 and the huvec.mitoint.24hr was 0. For the same compound, the huvec.nma.24hr was 0, the huvec.tc.24hr was 0 and the huvec.mtl.18hr was 0.4173. It also gave a huvec.tlps.18hr of 0, a huvec.tta.18hr of 0 and a huvec.ttl.18hr of 0. For the same compound, the cm.amp.avg.90min was 0, the cm.amp.cv.90min was 0 and the cm.bpm.90min was 0.07423. The cm.cam.90min was 0, the cm.decay.rise.90min was 0 and the cm.mii.90min was 0.03988. For the same compound, the cm.mito.90min was 0, the cm.spacing.cv.90min was 0 and the cm.tc.90min was 0. For the same compound, the cm.amp.avg.24hrs was 0, the cm.amp.cv.24hrs was 0 and the cm.bpm.24hrs was 0. It also gave a cm.cam.24hrs of 0, a cm.decay.rise.24hrs of 0 and a cm.mii.24hrs of 0. For the same compound, the cm.mito.24hrs was 0, the cm.spacing.cv.24hrs was 0 and the cm.tc.24hrs was 0. It also gave an endo.cyto.24hr of 0, an endo.mito.24hr of 0 and an endo.mitoint.24hr of 0. The endo.nma.24hr was 0, the endo.tc.24hr was 0 and the endo.mtl.18hr was 0.5389. The endo.tlps.18hr was 0.1522, the endo.tta.18hr was 0.1963 and the endo.ttl.18hr was 0.2248.

For Oc1cccc(-c2ccc(Cl)cc2)c1 [3'-OH-PCB 3], the huvec.cyto.24hr was 0.4672, the huvec.mito.24hr was 0.5506 and the huvec.mitoint.24hr was 0.1749. It also gave a huvec.nma.24hr of 1, a huvec.tc.24hr of 0.4672 and a huvec.mtl.18hr of 1. It also gave a huvec.tlps.18hr of 0.8699, a huvec.tta.18hr of 0.6576 and a huvec.ttl.18hr of 0.5155. For the same compound, the cm.amp.avg.90min was 0.6872, the cm.amp.cv.90min was 0.2705 and the cm.bpm.90min was 0.8835. It also gave a cm.cam.90min of 0.7562, a cm.decay.rise.90min of 0.4777 and a cm.mii.90min of 0.3912. The cm.mito.90min was 0.7743, the cm.spacing.cv.90min was 0.07935 and the cm.tc.90min was 0.7836. For the same compound, the cm.amp.avg.24hrs was 0.4464, the cm.amp.cv.24hrs was 0.3812 and the cm.bpm.24hrs was 0.4553. It also gave a cm.cam.24hrs of 0.2634, a cm.decay.rise.24hrs of 0.8154 and a cm.mii.24hrs of 0.3889. The cm.mito.24hrs was 0.4239, the cm.spacing.cv.24hrs was 0.8008 and the cm.tc.24hrs was 0.4277. The endo.cyto.24hr was 0.1365, the endo.mito.24hr was 0.1365 and the endo.mitoint.24hr was 0. For the same compound, the endo.nma.24hr was 0.4106, the endo.tc.24hr was 0.1112 and the endo.mtl.18hr was 0.5876. For the same compound, the endo.tlps.18hr was 0.7333, the endo.tta.18hr was 0.4844 and the endo.ttl.18hr was 0.4865.

COc1ccc(-c2cccc(Cl)c2)cc1Cl [4-OMe-PCB 11, 4-methoxy-3,3′-dichlorobiphenyl] was tested, and the huvec.cyto.24hr was 0.2668, the huvec.mito.24hr was 0.3305 and the huvec.mitoint.24hr was 0.3626. It also gave a huvec.nma.24hr of 0.3507, a huvec.tc.24hr of 0.2668 and a huvec.mtl.18hr of 0.5304. It also gave a huvec.tlps.18hr of 0.2567, a huvec.tta.18hr of 0 and a huvec.ttl.18hr of 0.6633. For the same compound, the cm.amp.avg.90min was 0.6528, the cm.amp.cv.90min was 0.2486 and the cm.bpm.90min was 0.4773. It also gave a cm.cam.90min of 0.4476, a cm.decay.rise.90min of 0.5303 and a cm.mii.90min of 0.1771. For the same compound, the cm.mito.90min was 0.5027, the cm.spacing.cv.90min was 0.1369 and the cm.tc.90min was 0.5138. For the same compound, the cm.amp.avg.24hrs was 0.152, the cm.amp.cv.24hrs was 0.06047 and the cm.bpm.24hrs was 0.441. The cm.cam.24hrs was 0.1329, the cm.decay.rise.24hrs was 0.2452 and the cm.mii.24hrs was 0.5873. It also gave a cm.mito.24hrs of 0.2518, a cm.spacing.cv.24hrs of 0.1755 and a cm.tc.24hrs of 0.2526. The endo.cyto.24hr was 0, the endo.mito.24hr was 0 and the endo.mitoint.24hr was 0. For the same compound, the endo.nma.24hr was 0, the endo.tc.24hr was 0 and the endo.mtl.18hr was 0. The endo.tlps.18hr was 0.2016, the endo.tta.18hr was 1 and the endo.ttl.18hr was 1.

O=S(=O)(O)Oc1ccc(-c2ccc(Cl)cc2)cc1 [4'-PCB 3 sulfate] gave a huvec.cyto.24hr of 0, a huvec.mito.24hr of 0 and a huvec.mitoint.24hr of 0. For the same compound, the huvec.nma.24hr was 0, the huvec.tc.24hr was 0 and the huvec.mtl.18hr was 0.4903. For the same compound, the huvec.tlps.18hr was 0, the huvec.tta.18hr was 0.272 and the huvec.ttl.18hr was 0. It also gave a cm.amp.avg.90min of 0.6628, a cm.amp.cv.90min of 0.2569 and a cm.bpm.90min of 0.1909. It also gave a cm.cam.90min of 0, a cm.decay.rise.90min of 0.4625 and a cm.mii.90min of 0. The cm.mito.90min was 0, the cm.spacing.cv.90min was 0.1039 and the cm.tc.90min was 0. For the same compound, the cm.amp.avg.24hrs was 0, the cm.amp.cv.24hrs was 0 and the cm.bpm.24hrs was 0. It also gave a cm.cam.24hrs of 0, a cm.decay.rise.24hrs of 0 and a cm.mii.24hrs of 0.1652. The cm.mito.24hrs was 0, the cm.spacing.cv.24hrs was 0 and the cm.tc.24hrs was 0. It also gave an endo.cyto.24hr of 0, an endo.mito.24hr of 0 and an endo.mitoint.24hr of 0. The endo.nma.24hr was 0, the endo.tc.24hr was 0 and the endo.mtl.18hr was 0.3281. The endo.tlps.18hr was 0.3444, the endo.tta.18hr was 0.1625 and the endo.ttl.18hr was 0.2037.
